Source: patent US9834525B2, “Inhibitors of paxillin function and related compositions and methods” (UNIVERSITY OF TENNESSEE RESEARCH FOUNDATION, priority 2015, dated 2017)

Legend:
[1] = Microsomal stability, pooled human liver microsomes; assay type: in vitro ADME
Method: (§1) Microsomal stability of compound (II-4) (1 μM) was assessed in pooled liver microsomes (human, mouse, and rat) (FIG. 7). Briefly, compound (II-4) was incubated in duplicate with microsomes at 37° C. Reactions contained microsomal protein in 100 mM potassium phosphate, 2 mM NADPH, 3 mM MgCl2, pH 7.4. NADPH was omitted to detect NADPH-free degradation. At 60 minutes, the reaction was stopped by adding ice-cold methanol containing internal standard. Samples were centrifuged to remove precipitated protein, and the supernatants were analyzed by LC/MS/MS to quantitate the remaining parent.
as §1, with “23).” for “7).”, “min,” for “minutes,”, “(+” for “containing”, “standard).” for “standard.”

[2] = system: paxillin (pY118) in OMM 2.5 cells; assay: Western blot of pY118 and total paxillin in HGF-treated metastatic UM cells; assay type: cell-based, human; conditions: HGF-treated OMM 2.5 cells, 4 hrs
Method: REC, Mel 270, OMM 2.5 under Hepatocyte Growth Factor (HGF) or Vascular Endothelial Growth Factor (VEGF) stimulation conditions: Cell lysates were collected in RIPA lysis buffer (50 mM Tris-HCl, pH 7.4, 150 mM NaCl, 2 mM EDTA, 1% Nonidet P-40, 0.1% SDS) with protease 1× inhibitor cocktail (Roche; Indianapolis, Ind.). Lysates were kept on ice and centrifuged at 10,000×g×10 minutes and total protein was measured using the BCA assay (Pierce, Rockford, Ill.). Protein samples were mixed with 4×LDS loading buffer with 2.5% 2-mercaptoethanol (Sigma-Aldrich), heated to 70° C. for 10 minutes, and loaded on NuPAGE 4-12% Bis-Tris gel (Invitrogen, Carlsbad, Calif.). […] Dual-channel infrared scan and quantitation of immunoblots were conducted using the ODYSSEY Sa infrared imaging system with Image Studio (Ver. 3.1.4) (LI-COR).
Immune studies of the α4β1 integrins (VCAM-1 and VLA-4) show high affinity α4 integrins may initiate signaling cascades through paxillin that regulate leukocytes migration to inflammation sites. […] The levels of total paxillin and pY118 were measured after activation of metastatic-UM (OMM 2.5) cells with Hepatocyte Growth Factor (HGF) to address in vitro if disruption of α4-downstream signaling through paxillin can affect α4-downstream signaling. […]

[3] = system: retinal endothelial cells (REC); assay: transwell (Boyden chamber) cell migration assay, VEGF-stimulated RECs; assay type: cell-based, human; conditions: 24 hours of VEGF stimulation; +100, +500 nM
Method: Two methods of evaluating VEGF-induced REC migration were used to assess the impact of compound (II-4) on paxillin-mediated migration: the scratch assay and the transwell (Boyden chamber) cell migration assay. To test if paxillin inhibition would reduce VEGF-induced REC migration, RECs were wounded and treated with VEGF ([…]) +/− compound (II-4) ([…]). Wound closure was monitored by phase microscopy over 24 hours and area of wound closure was calculated using the sophisticated image analysis tools in Adobe Photoshop. Cells were then fixed and nuclei were stained using DAPI to show extent of cell migration.
Compound (II-4) was further investigated around these concentrations using the transwell migration assay (FIG. 17B).
FIG. 17: REC migration. A) Increasing concentrations of compound (II-4) inhibit VEGF-induced migration in a scratch wound assay; [Serum Free-control, VEGF (100 ng/mL), VEGF+100 nM, 500 nM, 10 μM, 100 μM] (IC50≈180 ηM; n=6/group). Cells were stained with DAPI for representative images. B) RECs seeded onto transwell membranes were stimulated with VEGF+ vehicle or compound (II-4) for 24 hrs. Cells were removed from the topside of membrane and migrated cells were stained with DAPI [Serum-Free (SF), VEGF, +100, +500 nM, respectively]. Cell number was measured using fluorescence microscopy. All data are mean±SD (*, # P<0.001)

For COc1cc(C2OC(=O)Nc3c2ccc2ccccc32)cc(OC)c1OC (stereo not shown) [compound II-4], the “susceptibility to P-450 interaction in human microsomes compared to rodent” value ([1]; human vs rodent microsomes) was “less susceptible”, the “microsomal stability (metabolism by cytochrome P-450 enzymes)” value ([1]; human, 1 μM, 37° C., 60 min) was “rapidly metabolized” and the “ratio of pY118 paxillin to total paxillin (pPax:Pax)” value [2] was “dramatically decreased”. For the same molecule, the “migration of RECs in transwell migration assay” value [3] was “significant decrease”.
